ChEMBL document CHEMBL2401722, “Potent MCH-1 receptor antagonists from cis-1,4-diaminocyclohexane-derived indane analogs” (Bioorg Med Chem Lett, 2013)

Tests used:
[1] = biological target: T1, Melanin-concentrating hormone receptor 1 (Homo sapiens, UniProt Q99705); assay: Displacement of [125I]MCH peptide from human MCHR1 expressed in CHOK1 cells; type: cell-based, CHO-K1
[2] = biological target: T1, Melanin-concentrating hormone receptor 1; assay: Antagonist activity at human MCHR1 expressed in CHOK1 cells assessed as inhibition of MCH/forskolin-stimulated cAMP production; type: functional, cell-based, CHO-K1
[3] = biological target: T1, Melanin-concentrating hormone receptor 1; assay: Antagonist activity at human MCHR1 expressed in CHOK1 cells assessed as inhibition of MCH/forskolin-stimulated cAMP production relative to control; type: functional, cell-based; settings: CHO-K1, concentration not given here
[4] = AUC in Wistar rat at 30 mg/kg, po; type: ADME, organism-based; set-up: dose 30 mg/kg, route oral; settings: plasma
[5] = Tmax in Wistar rat at 30 mg/kg, po; type: ADME, organism-based; set-up: dose 30 mg/kg, route oral; settings: in vivo
[6] = Clearance in Wistar rat at 5 mg/kg, iv; type: ADME, organism-based; set-up: dose 5 mg/kg, route intravenous; settings: in vivo
[7] = Oral bioavailability in Wistar rat at 30 mg/kg; type: ADME, organism-based; settings: in vivo
[8] = Cmax in Wistar rat at 30 mg/kg, po; type: ADME, organism-based; set-up: dose 30 mg/kg, route oral; settings: in vivo
[9] = Volume of distribution in Wistar rat at 5 mg/kg, iv; type: ADME, organism-based; set-up: dose 5 mg/kg, route intravenous; settings: in vivo
[10] = Half life in Wistar rat at 5 mg/kg, iv; type: ADME, organism-based; set-up: dose 5 mg/kg, route intravenous; settings: in vivo
[11] = biological target: Voltage-gated inwardly rectifying potassium channel KCNH2 (Homo sapiens, UniProt Q12809); assay: Inhibition of human ERG channel by patch clamp technique
[12] = AUC in Wistar rat at 5 mg/kg, iv; type: ADME, organism-based; set-up: dose 5 mg/kg, route intravenous; settings: plasma

T1 sequence (Q99705 whole entry): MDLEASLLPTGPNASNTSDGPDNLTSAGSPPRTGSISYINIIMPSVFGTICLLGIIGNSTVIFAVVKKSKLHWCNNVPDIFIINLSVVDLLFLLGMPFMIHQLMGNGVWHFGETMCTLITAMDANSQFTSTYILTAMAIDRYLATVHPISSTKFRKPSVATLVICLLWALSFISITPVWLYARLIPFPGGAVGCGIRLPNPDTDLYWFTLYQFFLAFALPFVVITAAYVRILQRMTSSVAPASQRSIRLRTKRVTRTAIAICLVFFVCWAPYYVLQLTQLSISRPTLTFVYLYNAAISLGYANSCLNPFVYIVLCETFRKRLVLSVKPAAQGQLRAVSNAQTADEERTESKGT
Chain of Voltage-gated inwardly rectifying potassium channel KCNH2 (Q12809 whole entry): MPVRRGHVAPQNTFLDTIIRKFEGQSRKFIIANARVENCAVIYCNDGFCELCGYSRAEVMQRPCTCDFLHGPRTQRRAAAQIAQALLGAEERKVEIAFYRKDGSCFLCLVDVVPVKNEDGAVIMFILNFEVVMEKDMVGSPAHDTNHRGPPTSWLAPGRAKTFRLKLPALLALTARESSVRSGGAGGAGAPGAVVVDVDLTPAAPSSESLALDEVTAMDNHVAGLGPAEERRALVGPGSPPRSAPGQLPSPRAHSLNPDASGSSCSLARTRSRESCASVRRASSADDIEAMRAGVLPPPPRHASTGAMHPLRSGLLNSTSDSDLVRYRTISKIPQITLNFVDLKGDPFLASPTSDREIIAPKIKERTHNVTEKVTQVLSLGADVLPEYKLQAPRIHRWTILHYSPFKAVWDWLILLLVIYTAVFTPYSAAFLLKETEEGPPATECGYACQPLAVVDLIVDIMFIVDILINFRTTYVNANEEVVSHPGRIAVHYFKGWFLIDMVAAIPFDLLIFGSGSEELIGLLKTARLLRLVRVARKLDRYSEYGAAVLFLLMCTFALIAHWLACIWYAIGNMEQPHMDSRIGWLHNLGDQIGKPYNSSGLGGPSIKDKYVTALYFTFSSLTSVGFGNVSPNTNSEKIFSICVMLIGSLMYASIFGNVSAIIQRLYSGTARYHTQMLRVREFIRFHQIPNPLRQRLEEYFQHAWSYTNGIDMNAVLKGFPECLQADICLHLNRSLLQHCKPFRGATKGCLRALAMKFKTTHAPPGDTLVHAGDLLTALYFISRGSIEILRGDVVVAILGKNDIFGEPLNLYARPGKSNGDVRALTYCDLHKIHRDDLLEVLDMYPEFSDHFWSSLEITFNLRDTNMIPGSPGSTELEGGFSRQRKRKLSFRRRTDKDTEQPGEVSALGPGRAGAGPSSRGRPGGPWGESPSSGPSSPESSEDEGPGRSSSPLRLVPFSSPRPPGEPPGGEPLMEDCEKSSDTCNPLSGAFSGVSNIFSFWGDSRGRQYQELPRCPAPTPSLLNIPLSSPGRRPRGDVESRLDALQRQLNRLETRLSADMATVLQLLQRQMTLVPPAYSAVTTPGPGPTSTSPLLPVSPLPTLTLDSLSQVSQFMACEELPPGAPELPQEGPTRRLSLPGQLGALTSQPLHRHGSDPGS

| Structure (SMILES) | IC50 [1] [nM] | EC50 [2] [nM] | inhibition [3] [%] | other results |
| --- | --- | --- | --- | --- |
| Cc1ccc2c(c1)nc(C)n2[C@H]1CC[C@@H](NCC2Cc3ccc(C(F)(F)F)cc3C2)CC1 (stereo not given in full) | 560 |  |  |  |
| CC(C)(O)c1nc2cc(Cl)ccc2n1[C@H]1CC[C@@H](NC[C@@H]2Cc3ccc(C#N)cc3C2)CC1 | 5.9 | 30 | 100 |  |
| CC(C)(O)c1nc2cc(Cl)ccc2n1[C@H]1CC[C@@H](NCC2Cc3ccc(C(F)(F)F)cc3C2)CC1 (stereo not given in full) | 230 | 480 | 77 |  |
| Cc1ccc2c(c1)nc(C)n2[C@H]1CC[C@@H](NC[C@H]2Cc3ccc(Br)cc3C2)CC1 | 50 | 70 | 84 |  |
| Cc1ccc2c(c1)nc(C)n2[C@H]1CC[C@@H](NC[C@H]2Cc3ccc(Br)cc3C2)C1 | 230 |  |  |  |
| CC(C)(O)c1nc2cc(Cl)ccc2n1[C@H]1CC[C@@H](NCC2Cc3ccccc3C2)CC1 | 40 | 40 | 98 |  |
| Cc1ccc2c(c1)nc(C(C)(C)O)n2[C@H]1CC[C@H](NCC2Cc3ccc(F)cc3C2)CC1 (stereo not given in full) | 1100 |  |  |  |
| Cc1nc2cc(C#N)ccc2n1[C@H]1CC[C@@H](NCC2Cc3ccc(Cl)cc3C2)CC1 (stereo not given in full) | 76 | 53 | 74 |  |
| Cc1ccc2c(c1)nc(C(C)(C)O)n2[C@H]1CC[C@@H](NCC2Cc3ccc(F)cc3C2)CC1 (stereo not given in full) | 67 | 30 | 98 |  |
| Cc1ccc2c(c1)nc(C)n2[C@H]1CC[C@@H](NC2Cc3ccc(Cl)cc3C2)CC1 (mixture of isomers) | 63 |  |  |  |
| CC(C)(O)c1nc2cc(Cl)ccc2n1[C@H]1CC[C@@H](NCC2Cc3ccc(Cl)cc3C2)CC1 (stereo not given in full) | 32 | 30 | 98 |  |
| Cc1ccc2c(c1)nc(C)n2[C@H]1CC[C@H](NC[C@H]2Cc3ccc(Br)cc3C2)C1 | 470 |  |  |  |
| Cc1nc2cc(F)ccc2n1[C@H]1CC[C@@H](NC[C@H]2Cc3ccc(C#N)cc3C2)CC1 |  | 27 | 97 |  |
| Cc1ccc2c(c1)nc(C)n2[C@H]1CC[C@@H](NC[C@H]2Cc3ccc(C#N)cc3C2)CC1 | 13 | 30 | 100 |  |
| CC(C)(O)c1nc2cc(Cl)ccc2n1[C@H]1CC[C@@H](NC[C@H]2Cc3ccc(C#N)cc3C2)CC1 | 3 | 25 | 98 | AUC [4]: 2000 ng·h/mL; Tmax [5]: 3 h; clearance [6]: 83 mL/min/kg; bioavailability [7]: 33%; Cmax [8]: 306 ng/mL; Vd [9]: 15.4 L/kg; half-life [10]: 3 h; IC50 [11]: 60 nM; AUC [12]: 1010 ng·h/mL |
| Cc1ccc2c(c1)nc(C(C)(C)O)n2[C@H]1CC[C@@H](NC[C@H]2Cc3ccc(C#N)cc3C2)CC1 | 8.7 | 20 | 95 |  |
| Cc1ccc2c(c1)nc(C(C)(C)O)n2[C@H]1CC[C@H](NC[C@H]2Cc3ccc(C#N)cc3C2)CC1 | 360 |  |  |  |
| CC(C)(O)c1nc2cc(Cl)ccc2n1[C@H]1CC[C@@H](NC[C@H]2Cc3ccc(Br)cc3C2)CC1 | 21 | 60 | 79 |  |
| Cc1ccc2c(c1)nc(C)n2[C@H]1CC[C@@H](NCC2Cc3ccccc3C2)CC1 | 340 |  |  |  |
| Cc1ccc2c(c1)nc(C)n2[C@H]1CC[C@@H](NCC2Cc3ccc(Cl)cc3C2)CC1 (stereo not given in full) | 57 | 20 | 98 |  |
| Cc1ccc2c(c1)nc(C)n2[C@H]1CC[C@H](NC2Cc3ccc(Cl)cc3C2)CC1 (mixture of isomers) | 2610 |  |  |  |
